Converted amounts (≈) assume the structure as drawn.
Legend:
Test in all cases: in vitro antibacterial evaluation, MIC by broth dilution
Type in all cases: cell-based
Escherichia coli = system: Escherichia coli
Outline: (§1)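 MIC, the lowest antibiotic concentration preventing growth, was read across 64-0.06 μg/mL with 5×10^5 CFU/mL inoculum. Method followed NCCLS M7-A2 broth dilution using Mueller-Hinton II; Gram-positive strains covered recent methicillin-, penicillin- and/or vancomycin-resistant clinical isolates.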

Streptococcus sp. = details: broth dilution, 18 hours at 35° C.; for MIC Streptococcus pneumoniae (ATCC 6301): strain ATCC 6301; for MIC Streptococcus pneumoniae (GC 1894): strain GC 1894; for MIC Streptococcus pyogenes (GC 4563): strain GC 4563; for MIC Streptococcus agalactiae (GC 4564): strain GC 4564; for MIC Streptococcus pneumoniae (GC 4565): strain GC 4565
Outline: as §1

Staphylococcus sp. = details: broth dilution, 18 hours at 35° C.; for MIC Staphylococcus aureus (GC 1131): strain GC 1131
Outline: as §1

Enterococcus sp. = details: broth dilution, 18 hours at 35° C.; for MIC Enterococcus faecalis (ATCC 29212): strain ATCC 29212; for MIC Enterococcus faecalis (GC 2242): strain GC 2242; for MIC Enterococcus faecium (GC 2243): strain GC 2243; for MIC Enterococcus faecalis (GC 2691): strain GC 2691; for MIC Enterococcus faecalis (GC 3059): strain GC 3059; for MIC Enterococcus faecalis (GC 4552): strain GC 4552; for MIC Enterococcus faecalis (GC 4553): strain GC 4553; for MIC Enterococcus faecalis (GC 4554): strain GC 4554; for MIC Enterococcus faecium (GC 4556): strain GC 4556; for MIC Enterococcus faecium (GC 4557): strain GC 4557; for MIC Enterococcus avium (GC 4558): strain GC 4558; for MIC Enterococcus faecalis (GC 6189): strain GC 6189
Outline: as §1

MIC Escherichia coli (ATCC 25922) (Escherichia coli; strain ATCC 25922, 18 hours at 35° C.): >64 µg/mL | MIC Escherichia coli (GC 4559) (Escherichia coli; strain GC 4559, 18 hours at 35° C.): 64 µg/mL (≈ 43.7 µM) | MIC Escherichia coli (GC 4560) (Escherichia coli; strain GC 4560, 18 hours at 35° C.): 8 µg/mL (≈ 5.46 µM) | MIC Streptococcus pneumoniae (ATCC 6301) (Streptococcus sp.; inoculum 5×10^5 CFU/mL): <0.5 µg/mL | MIC Streptococcus pneumoniae (GC 1894) (Streptococcus sp.; inoculum 5×10^5 CFU/mL): <0.5 µg/mL | MIC Streptococcus pyogenes (GC 4563) (Streptococcus sp.; inoculum 5×10^5 CFU/mL): <0.5 µg/mL | MIC Streptococcus agalactiae (GC 4564) (Streptococcus sp.; inoculum 5×10^5 CFU/mL): <0.5 µg/mL | MIC Streptococcus pneumoniae (GC 4565) (Streptococcus sp.; inoculum 5×10^5 CFU/mL): 1 µg/mL (≈ 0.682 µM) | MIC Streptococcus pneumoniae (ATCC 6301) (Streptococcus sp.): <0.5 µg/mL | MIC Streptococcus pneumoniae (GC 1894) (Streptococcus sp.): <0.5 µg/mL | MIC Streptococcus pyogenes (GC 4563) (Streptococcus sp.): <0.5 µg/mL | MIC Streptococcus agalactiae (GC 4564) (Streptococcus sp.): <0.5 µg/mL | MIC Streptococcus pneumoniae (GC 4565) (Streptococcus sp.): 1 µg/mL (≈ 0.682 µM) | MIC Staphylococcus aureus (GC 1131) (Staphylococcus sp.; inoculum 5×10^5 CFU/mL): 4 µg/mL (≈ 2.73 µM) | MIC Staphylococcus aureus (ATCC 29213) (Staphylococcus sp.; strain ATCC 29213): 4 µg/mL (≈ 2.73 µM) | MIC Staphylococcus aureus (GC 1131) (Staphylococcus sp.): 4 µg/mL (≈ 2.73 µM) | MIC Staphylococcus aureus (GC 3051) (Staphylococcus sp.; strain GC 3051): 8 µg/mL (≈ 5.46 µM) | MIC Staphylococcus aureus (GC 3053) (Staphylococcus sp.; strain GC 3053): 8 µg/mL (≈ 5.46 µM) | MIC Staphylococcus aureus (GC 4541) (Staphylococcus sp.; strain GC 4541): 4 µg/mL (≈ 2.73 µM) | MIC Staphylococcus aureus (GC 4542) (Staphylococcus sp.; strain GC 4542): 4 µg/mL (≈ 2.73 µM) | MIC Staphylococcus aureus-SMITH (GC 4543) (Staphylococcus sp.; strain GC 4543): 1 µg/mL (≈ 0.682 µM) | MIC Staphylococcus aureus (GC 4544) (Staphylococcus sp.; strain GC 4544): 4 µg/mL (≈ 2.73 µM) | MIC Staphylococcus aureus (GC 4545) (Staphylococcus sp.; strain GC 4545): 4 µg/mL (≈ 2.73 µM) | MIC Coagulase Negative Staphylococcus (GC 4547) (Staphylococcus sp.; strain GC 4547): 8 µg/mL (≈ 5.46 µM) | MIC Coagulase Negative Staphylococcus (GC 4548) (Staphylococcus sp.; strain GC 4548): 1 µg/mL (≈ 0.682 µM) | MIC Coagulase Negative Staphylococcus (GC 4549) (Staphylococcus sp.; strain GC 4549): 4 µg/mL (≈ 2.73 µM) | MIC Coagulase Negative Staphylococcus (GC 4551) (Staphylococcus sp.; strain GC 4551): 2 µg/mL (≈ 1.36 µM) | MIC Coagulase Negative Staphylococcus (GC 6257) (Staphylococcus sp.; strain GC 6257): 2 µg/mL (≈ 1.36 µM) | MIC Staphylococcus aureus-SMITH (GC 4543) (Staphylococcus sp.; strain SMITH GC 4543): 1 µg/mL (≈ 0.682 µM) | MIC Enterococcus faecalis (ATCC 29212) (Enterococcus sp.; inoculum 5×10^5 CFU/mL): 8 µg/mL (≈ 5.46 µM) | MIC Enterococcus faecalis (GC 2242) (Enterococcus sp.; inoculum 5×10^5 CFU/mL): 4 µg/mL (≈ 2.73 µM) | MIC Enterococcus faecium (GC 2243) (Enterococcus sp.; inoculum 5×10^5 CFU/mL): 8 µg/mL (≈ 5.46 µM) | MIC Enterococcus faecalis (GC 2691) (Enterococcus sp.; inoculum 5×10^5 CFU/mL): 4 µg/mL (≈ 2.73 µM) | MIC Enterococcus faecalis (GC 3059) (Enterococcus sp.; inoculum 5×10^5 CFU/mL): 8 µg/mL (≈ 5.46 µM) | MIC Enterococcus faecalis (GC 4552) (Enterococcus sp.; inoculum 5×10^5 CFU/mL): 8 µg/mL (≈ 5.46 µM) | MIC Enterococcus faecalis (GC 4553) (Enterococcus sp.; inoculum 5×10^5 CFU/mL): 4 µg/mL (≈ 2.73 µM) | MIC Enterococcus faecalis (GC 4554) (Enterococcus sp.; inoculum 5×10^5 CFU/mL): 8 µg/mL (≈ 5.46 µM) | MIC Enterococcus faecium (GC 4556) (Enterococcus sp.; inoculum 5×10^5 CFU/mL): 4 µg/mL (≈ 2.73 µM) | MIC Enterococcus faecium (GC 4557) (Enterococcus sp.; inoculum 5×10^5 CFU/mL): 8 µg/mL (≈ 5.46 µM) | MIC Enterococcus avium (GC 4558) (Enterococcus sp.; inoculum 5×10^5 CFU/mL): 4 µg/mL (≈ 2.73 µM) | MIC Enterococcus faecalis (GC 6189) (Enterococcus sp.; inoculum 5×10^5 CFU/mL): 4 µg/mL (≈ 2.73 µM) | MIC Enterococcus faecalis (ATCC 29212) (Enterococcus sp.): 8 µg/mL (≈ 5.46 µM) | MIC Enterococcus faecalis (GC 2242) (Enterococcus sp.): 4 µg/mL (≈ 2.73 µM) | MIC Enterococcus faecium (GC 2243) (Enterococcus sp.): 8 µg/mL (≈ 5.46 µM) | MIC Enterococcus faecalis (GC 2691) (Enterococcus sp.): 4 µg/mL (≈ 2.73 µM) | MIC Enterococcus faecalis (GC 3059) (Enterococcus sp.): 8 µg/mL (≈ 5.46 µM) | MIC Enterococcus faecalis (GC 4552) (Enterococcus sp.): 8 µg/mL (≈ 5.46 µM) | MIC Enterococcus faecalis (GC 4553) (Enterococcus sp.): 4 µg/mL (≈ 2.73 µM) | MIC Enterococcus faecalis (GC 4554) (Enterococcus sp.): 8 µg/mL (≈ 5.46 µM) | MIC Enterococcus faecium (GC 4556) (Enterococcus sp.): 4 µg/mL (≈ 2.73 µM) | MIC Enterococcus faecium (GC 4557) (Enterococcus sp.): 8 µg/mL (≈ 5.46 µM) | MIC Enterococcus avium (GC 4558) (Enterococcus sp.): 4 µg/mL (≈ 2.73 µM) | MIC Enterococcus faecalis (GC 6189) (Enterococcus sp.): 4 µg/mL (≈ 2.73 µM)
Compound: CC(c1ccccc1)C1NC(=O)CNC(=O)C(CO)NC(=O)C(C(O)C2CNC(=N)N2C2OC(CO)C(O)C(O)C2O)NC(=O)C(C(O)C2CNC(=N)N2)NC(=O)C(Cc2ccc(OC3OC(CO)C(OC4OC5COC(c6ccc(-c7cccs7)cc6)OC5C(O)C4O)C(O)C3O)cc2)NC1=O (stereo not drawn) [Example 163]
MIC Staphylococcus haemolyticus (GC 4546) (Staphylococcus sp.; strain GC 4546): 4 µg/mL (≈ 2.73 µM)
